Experimental findings from patent US10758513B2, “Modulators of mitochondrial protein import” (THE REGENTS OF THE UNIVERSITY OF CALIFORNIA, priority 2011, dated 2020) are described below.

The structures appear in SMILES notation. Converted amounts (≈) assume the structure as drawn. “Also recorded” adds a separate entry of the source.

The test system of one assay is HeLa cells. As to the kind of experiment: MTT cell viability assay in HeLa cells (MitoBloCK-1). The format is cell-based. Particulars: 25 μM and 50 μM, 24 hours. As to the method: Measurements of cell viability/toxicity were made with a MTT based toxicology assay kit (Sigma-Aldrich). HeLa cells were grown in 24-well tissue culture dishes to 80% confluency. […] Following drug treatment, cells were rinsed with phosphate buffered saline and incubated with complete media with MTT solution supplement for additional 4 hours as described in manufacturer's protocols. This media was removed and 500 μL of MTT solubilization solution was added to dissolve the formazan crystals. The formazan absorbance was measured at OD=570 nm on a Wallac Victor plate reader (Perkin Elmer) along with a turbidity measurement at OD=630 nm. After turbidity subtraction, the percent viability of each cell sample was calculated as: [(absorbance of vehicle treated cells−absorbance of drug treated cells)/(absorbance of vehicle treated cells)]×100.

Another assay deals with isogenic control (TIM10). As to the kind of experiment: Yeast growth inhibition (MIC50), isogenic control (TIM10). It counts as cell-based. Particulars: Saccharomyces cerevisiae. The procedure: A primary screen was performed using freshly streaked tim10-1 diluted in YPD to an OD600 of approximately 0.0002 and kept on ice throughout the screening run. A Titertek multidrop (Huntsville, Ala.) was used dispense 40 μL of cell suspension to all wells of each clear 384-well plate (Greiner Bio One). After yeast suspension warmed to room temperature, a Biomek FX (Beckman Coulter) was used to pin transfer 0.5 μL of compound from 1 mM stock or DMSO to respective wells. Approximate screening concentration was 12.5 μM. All operations were performed by an automated plate scheduler to ensure consistency across the screening run. After completed compound transfer, all plates were incubated at 25° C. in a humidified incubator until the OD600 reached approximately 0.8 in the control wells; the control consisted of the tim10-1 mutant with the vehicle 1% DMSO. Each plate was shaken in a Beckman orbital shaker to resuspend settled cells, and the OD600 in each well was read by a Wallac Victor plate reader (Perkin Elmer). The top 600 growth inhibitory compounds were determined and assembled into two plates. Using a similar screening methodology, hit compounds were reconfirmed with the tim10-1 strain and growth inhibition was compared to the WT strain (TIM10) as well as the “rescued” strain (tim10-1 TIM10 that contained a copy of the wild-type TIM10 genes on a centromeric plasmid) strains. […]

Assay [1] has as its system tim12-1 mutant mitochondria. As to the kind of experiment: In vitro import of AAC into tim12-1 mutant mitochondria. It counts as biochemical, yeast. The procedure: (§1) Prior to import into purified mitochondria, ^35S-methionine and cysteine labeled proteins were generated with TNT Quick Coupled Transcription/Translation kits (Promega) and plasmids carrying the gene of interest. Transcription of genes was driven by either a T7 or SP6 promoter. Import reactions were conducted according to established methods. After frozen mitochondria aliquots were thawed and added to the import buffer at a final concentration of 100 μg/mL, drug or DMSO vehicle was added as indicated. A final vehicle concentration of 1% was used in all experiments. Following 15 minute incubation at 25° C., import reactions were initiated by the addition of […] of translation mix. Aliquots were removed at intervals during the reaction timecourse and import was terminated with either cold buffer, 25 μg/mL trypsin, or a combination of both. If trypsin was added to digest unimported precursor protein, soybean trypsin inhibitor (STI) was subsequently added in excess after 15 minute incubation on ice. After a final recovery of by centrifugation (8,000×g, 5 minutes), mitochondria were disrupted in Laemmli sample buffer. Imports of membrane proteins (AAC, PiC, Tom40, Tim22, and Tim23) included a carbonate extraction step to remove proteins that had not inserted into the membrane (Koehler C M, et al. (1998), Science 279:369-373). […]

Assay [2] relates to tim10-1 mutant overexpressing import components. As to the kind of experiment: Yeast growth inhibition, tim10-1 mutant overexpressing import components. It counts as cell-based. An excerpt:
In general, a standard set of genetic and molecular techniques were used to generate the strains in this study (31, 32). Screening strains were generated based on previously characterized temperature sensitive mutants (see supplementary table 1). The snq1 and pdr5 deletions were introduced in each strain by strain mating with MDY326 or PCR-mediated deletion (33, 34). Overexpression strains were generated by transforming 2p yeast shuttle vectors carrying the gene of interest with the native promoter into the tim10-1 strain using a standard LiCl protocol (35). Transformed yeast was maintained on selective media appropriate for the plasmid's auxotrophic marker. Strains lacking mitochondrial DNA (rho null) were generated by two rounds of selection of the parent on YPD plates supplemented with ethidium bromide (40 μg/ml) followed by two rounds of single colony selection on YPD plates.
(§2) A primary screen was performed using freshly streaked tim10-1 diluted in YPD to an OD600 of approximately 0.0002 and kept on ice throughout the screening run. […] Each plate was shaken in a Beckman orbital shaker to resuspend settled cells, and the OD600 in each well was read by a Wallac Victor plate reader (Perkin Elmer). The top 600 growth inhibitory compounds were determined and assembled into two plates. […]

The subject of another assay is WT mitochondria. As to the kind of experiment: In vitro import of AAC into wild-type mitochondria. It counts as biochemical, yeast. The procedure:
as §1

The subject of a further assay is tim10-1 mutant. As to the kind of experiment: Yeast growth inhibition (MIC50), tim10-1 mutant. Particulars: Saccharomyces cerevisiae, read-out: MIC50 that inhibited growth of the tim10-1 mutant. It counts as cell-based. As to the method:
The screen was conducted with an integrated robotic system with plate scheduling. Briefly, diversity oriented commercial libraries of drug-like compounds from Chembridge and Asinex were screened against the tim10-1 strain at a concentration of approximately 10 μM. The screen encompassed a total of approximately 50,000 compounds dissolved in DMSO. Yeast in YPD medium was aliquoted into 384-well plates followed by compound addition with robotic pinning into the assay wells. DMSO was the vehicle for the small molecules, and several plate columns that contained only 1% DMSO were included as a control with the pinned compounds. As a negative control for growth, wells pinned with the mitochondrial uncoupler CCCP, which caused lethality, were also included. After 2 days of incubation at 25° C., cultures in each well were measured for optical density (O.D.) as a measure of growth. A typical reading for the positive control was OD600=0.8. […]
as §2

The test system of assay [3] is Δpdr5Δsnq2 strain overexpressing Erv1. As to the kind of experiment: Yeast growth inhibition (MIC50), Δpdr5Δsnq2 strain overexpressing Erv1. The format is cell-based. As to conditions: Saccharomyces cerevisiae; Δpdr5Δsnq2 overexpressing Erv1 from high copy plasmid. The procedure:
(§3) For MIC50 analysis in the yeast strains, serial dilution of MitoBloCK-6 (0.5 μl) was pinned into assay plate wells containing 50 μl of yeast (Table 2) in rich ethanol-glycerol media (starting OD600=0.0002). Plates were then incubated at 25° C. in a humidified chamber for 40 hours. Each plate was shaken in a Beckman orbital shaker to resuspend settled cells, and the OD600 in each well was read by a Wallac Victor plate reader (Perkin Elmer).

The test system of a further assay is Δpdr5Δsnq2 yeast strain. As to the kind of experiment: Yeast growth inhibition (MIC50), Δpdr5Δsnq2 strain. It counts as cell-based. Particulars: Saccharomyces cerevisiae, ethanol-glycerol media, 25° C., 40 hours. The procedure:
as §3

Turning to `NC(=S)N/N=C/c1c(O)c(Br)cc2oc3c(c12)CCCC3` [MitoBloCK-1], in the assay on HeLa cells, the “cell viability (MTT)” value is “significantly decreased in a dose-responsive manner”. Moreover, the results for the MIC50 with isogenic control (TIM10) and in the assay with tim10-1 mutant were over 200 µM and about 1 µM (≈ 0.368 µg/mL), respectively. The “import of AAC into tim12-1 mutant mitochondria” value in assay [1] is on record as “did not inhibit the import of AAC”. In addition, in assay [2], the “growth inhibition of tim10-1 mutant with overexpression of import components” value was “did not alter the ability of MitoBloCK-1 to inhibit growth”. Besides, in the assay on WT mitochondria, the “import of AAC into WT mitochondria” value is “did not inhibit import; also recorded: does not inhibit AAC import”.
For the compound `Oc1c(Cl)cc(Cl)cc1/C=N/c1ccc(Nc2ccccc2)cc1` [MitoBloCK-6], the MIC50 in assay [3] was 28.3 µM (≈ 10.1 µg/mL); with Δpdr5Δsnq2 yeast strain, 15.2 µM (≈ 5.43 µg/mL).
